Source: ChEMBL document CHEMBL3396981, “Synthesis and in vitro biological evaluation of 2-(phenylcarbamoyl)phenyl 4-substituted benzoates” (Bioorg Med Chem, 2015)
In brackets after ≈: the same amount, converted by molar mass. Activity calls are given as the source filed them. The calls are words filed in the database; no cut-off is given here.

What was measured:
Staphylococcus aureus [1] = assay: Antibacterial activity against Staphylococcus aureus CCM 4516/08 after 24 hrs by broth microdilution method; type: functional; conditions: CCM 4516/08, 24 h
Staphylococcus aureus [2] = assay: Antibacterial activity against Staphylococcus aureus CCM 4516/08 after 48 hrs by broth microdilution method; type: functional; conditions: CCM 4516/08, 48 h
Staphylococcus aureus [3] = assay: Antibacterial activity against methicillin-resistant Staphylococcus aureus H 5996/08 after 24 hrs by broth microdilution method; type: functional; conditions: H 5996/08, 24 h
Staphylococcus aureus [4] = assay: Antibacterial activity against methicillin-resistant Staphylococcus aureus H 5996/08 after 48 hrs by broth microdilution method; type: functional; conditions: H 5996/08, 48 h
[5] = test system: Staphylococcus epidermidis; assay: Antibacterial activity against Staphylococcus epidermidis H 6966/08 after 24 hrs by broth microdilution method; type: functional; conditions: H 6966/08, 24 h
[6] = test system: Staphylococcus epidermidis; assay: Antibacterial activity against Staphylococcus epidermidis H 6966/08 after 48 hrs by broth microdilution method; type: functional; conditions: H 6966/08, 48 h
Enterococcus sp. [7] = assay: Antibacterial activity against Enterococcus sp. J 14365/08 after 24 hrs by broth microdilution method; type: functional; conditions: J 14365/08, 24 h
Enterococcus sp. [8] = assay: Antibacterial activity against Enterococcus sp. J 14365/08 after 48 hrs by broth microdilution method; type: functional; conditions: J 14365/08, 48 h
HepG2 [9] = assay: Cytotoxicity against human HepG2 cells after 72 hrs by MTT assay; type: cell-based; conditions: HepG2, 72 h
[10] = Selectivity index, ratio of IC50 for human HepG2 cells to MIC for Staphylococcus aureus CCM 4516/08
[11] = test system: Mycobacterium tuberculosis; assay: Antimycobacterial activity against Mycobacterium tuberculosis H37Rv 331/88 after 14 days by microdilution method; type: functional; conditions: H37Rv 331/88, 336 h
[12] = test system: Mycobacterium tuberculosis; assay: Antimycobacterial activity against Mycobacterium tuberculosis H37Rv 331/88 after 21 days by microdilution method; type: functional; conditions: H37Rv 331/88, 504 h
Mycobacterium avium [13] = assay: Antimycobacterial activity against INH,RIF,OFX,EMB-resistant Mycobacterium avium 330/88 after 14 days by microdilution method; type: functional; conditions: 330/88, 336 h
Mycobacterium avium [14] = assay: Antimycobacterial activity against INH,RIF,OFX,EMB-resistant Mycobacterium avium 330/88 after 21 days by microdilution method; type: functional; conditions: 330/88, 504 h
Mycobacterium kansasii [15] = assay: Antimycobacterial activity against Mycobacterium kansasii 235/80 after 7 days by microdilution method; type: functional; conditions: 235/80, 168 h
Mycobacterium kansasii [16] = assay: Antimycobacterial activity against Mycobacterium kansasii 235/80 after 14 days by microdilution method; type: functional; conditions: 235/80, 336 h
Mycobacterium kansasii [17] = assay: Antimycobacterial activity against Mycobacterium kansasii 235/80 after 21 days by microdilution method; type: functional; conditions: 235/80, 504 h
Mycobacterium kansasii [18] = assay: Antimycobacterial activity against Mycobacterium kansasii 6509/96 after 7 days by microdilution method; type: functional; conditions: 6509/96, 168 h
Mycobacterium kansasii [19] = assay: Antimycobacterial activity against Mycobacterium kansasii 6509/96 after 14 days by microdilution method; type: functional; conditions: 6509/96, 336 h
Mycobacterium kansasii [20] = assay: Antimycobacterial activity against Mycobacterium kansasii 6509/96 after 21 days by microdilution method; type: functional; conditions: 6509/96, 504 h
[21] = Selectivity index, ratio of IC50 for human HepG2 cells to MIC for Mycobacterium tuberculosis; type: toxicity, cell-based; conditions: read-out: Selectivity Index
in vitro = conditions: human, HepG2 cells
Description: Selectivity index, ratio of IC50 for human HepG2 cells to MIC for Mycobacterium kansasii 6509/96

Trichosporon asahii [22] = assay: Antifungal activity against Trichosporon asahii 1188 after 24 hrs by broth microdilution method; type: functional; conditions: Trichosporon asahii, 1188, 24 h
Trichosporon asahii [23] = assay: Antifungal activity against Trichosporon asahii 1188 after 48 hrs by broth microdilution method; type: functional; conditions: Trichosporon asahii, 1188, 48 h
HepG2 [24] = assay: Cytostatic activity against human HepG2 cells after 72 hrs by MTT assay; type: functional, cell-based; conditions: HepG2, 72 h
[25] = Selectivity index, ratio of IC50 for human HepG2 cells to MIC for atypical mycobacteria
[26] = Selectivity index, ratio of IC50 for human HepG2 cells to MIC for Staphylococci
Candida albicans = assay: Antifungal activity against Candida albicans ATCC 44859 after 24 to 48 hrs by broth dilution method; type: functional, organism-based
Candida tropicalis = assay: Antifungal activity against Candida tropicalis 156 after 24 to 48 hrs by broth dilution method; type: functional, organism-based
Pichia kudriavzevii = assay: Antifungal activity against Candida krusei E28 after 24 to 48 hrs by broth dilution method; type: functional, organism-based
Nakaseomyces glabratus = assay: Antifungal activity against Candida glabrata 20/I after 24 to 48 hrs by broth dilution method; type: functional, organism-based
Aspergillus fumigatus = assay: Antifungal activity against Aspergillus fumigatus 231 after 24 to 48 hrs by broth dilution method; type: functional, organism-based
Lichtheimia corymbifera = assay: Antifungal activity against Absidia corymbifera 272 after 24 to 48 hrs by broth dilution method; type: functional, organism-based
[27] = test system: Trichophyton mentagrophytes; assay: Antifungal activity against Trichophyton mentagrophytes 445 after 24 to 48 hrs by broth dilution method; type: functional, organism-based

Compound | MIC (Staphylococcus aureus [1]) [µM] | MIC (Staphylococcus aureus [2]) [µM] | MIC (Staphylococcus aureus [3]) [µM] | MIC (Staphylococcus aureus [4]) [µM] | MIC [5] [µM] | MIC [6] [µM] | MIC (Enterococcus sp. [7]) [µM] | MIC (Enterococcus sp. [8]) [µM] | IC50 (HepG2 [9]) [µM] | MIC [11] [µM] | MIC [12] [µM] | MIC (Mycobacterium avium [13]) [µM] | MIC (Mycobacterium avium [14]) [µM] | MIC (Mycobacterium kansasii [15]) [µM] | MIC (Mycobacterium kansasii [16]) [µM] | MIC (Mycobacterium kansasii [17]) [µM] | MIC (Mycobacterium kansasii [18]) [µM] | MIC (Mycobacterium kansasii [19]) [µM] | MIC (Mycobacterium kansasii [20]) [µM] | selectivity ratio [21] | further results
CC1(C)S[C@@H]2[C@H](NC(=O)Cc3ccccc3)C(=O)N2[C@H]1C(=O)O [PENICILLIN G] | 0.98 (≈ 0.328 µg/mL) | 0.98 (≈ 0.328 µg/mL) | 62.5 (≈ 20.9 µg/mL) | 125 (≈ 41.8 µg/mL) | 250 (≈ 83.6 µg/mL) | 250 (≈ 83.6 µg/mL) | 7.81 (≈ 2.61 µg/mL) | 15.6 (≈ 5.22 µg/mL) | > 10000 | – | – | – | – | – | – | – | – | – | – | – | Selectivity Index [10]: >10204
NNC(=O)c1ccncc1 [ISONIAZID] | – | – | – | – | – | – | – | – | > 250 | 0.5 (≈ 0.0686 µg/mL) | 0.5 (≈ 0.0686 µg/mL) | > 250 | > 250 | > 250 | > 250 | > 250 | 2 (≈ 0.274 µg/mL) | 4 (≈ 0.549 µg/mL) | 4 (≈ 0.549 µg/mL) | > 250 | selectivity ratio (in vitro): ≥ 31.3
O=C(Oc1ccc(Cl)cc1C(=O)Nc1ccc(Cl)c(Cl)c1)c1ccc(Br)cc1 | 0.49 (≈ 0.245 µg/mL) | 0.49 (≈ 0.245 µg/mL) | 0.49 (≈ 0.245 µg/mL) | 0.49 (≈ 0.245 µg/mL) | 0.49 (≈ 0.245 µg/mL) | 0.49 (≈ 0.245 µg/mL) | 31.2 (≈ 15.6 µg/mL) | 500 (≈ 250 µg/mL) | > 50 | 1 (≈ 0.5 µg/mL) | 1 (≈ 0.5 µg/mL) | 8 (≈ 4 µg/mL) | 8 (≈ 4 µg/mL) | 2 (≈ 0.999 µg/mL) | 4 (≈ 2 µg/mL) | 4 (≈ 2 µg/mL) | 1 (≈ 0.5 µg/mL) | 4 (≈ 2 µg/mL) | 4 (≈ 2 µg/mL) | > 50 | MIC (Trichosporon asahii [22]): 500 µM (≈ 250 µg/mL); MIC (Trichosporon asahii [23]): > 500 µM; IC50 (HepG2 [24]): 2.5 µM; Selectivity Index [25]: >6.25; Selectivity Index [26]: >102; Activity (Candida albicans): inactive; Activity (Candida tropicalis): inactive; Activity (Pichia kudriavzevii): inactive; Activity (Nakaseomyces glabratus): inactive; Activity (Aspergillus fumigatus): inactive; Activity (Lichtheimia corymbifera): inactive; Activity [27]: inactive
O=C(Oc1ccc(Cl)cc1C(=O)Nc1ccc(Cl)c(Cl)c1)c1ccc([N+](=O)[O-])cc1 | 0.49 (≈ 0.228 µg/mL) | 0.49 (≈ 0.228 µg/mL) | 0.49 (≈ 0.228 µg/mL) | 0.49 (≈ 0.228 µg/mL) | 0.49 (≈ 0.228 µg/mL) | 0.49 (≈ 0.228 µg/mL) | 62.5 (≈ 29.1 µg/mL) | > 125 | > 50 | 0.5 (≈ 0.233 µg/mL) | 1 (≈ 0.466 µg/mL) | 8 (≈ 3.73 µg/mL) | 8 (≈ 3.73 µg/mL) | 2 (≈ 0.931 µg/mL) | 4 (≈ 1.86 µg/mL) | 4 (≈ 1.86 µg/mL) | 2 (≈ 0.931 µg/mL) | 4 (≈ 1.86 µg/mL) | 4 (≈ 1.86 µg/mL) | > 50 | MIC (Trichosporon asahii [22]): 31.2 µM (≈ 14.6 µg/mL); MIC (Trichosporon asahii [23]): > 125 µM; IC50 (HepG2 [24]): 3.55 µM; Selectivity Index [25]: >6.25; Selectivity Index [26]: >102; Activity (Candida albicans): inactive; Activity (Candida tropicalis): inactive; Activity (Pichia kudriavzevii): inactive; Activity (Nakaseomyces glabratus): inactive; Activity (Aspergillus fumigatus): inactive; Activity (Lichtheimia corymbifera): inactive; Activity [27]: inactive
